Measurements: publication PMC7290285 (Viruses, 2020)
Counter-ions that a name gives are not always drawn. Like-named read-outs stand apart in the source and are kept apart here.

Legend:
[1] = system: lentiviral particles with AZT-resistant RT mutant (eGFP) in HEK293T-mCat1 cells; assay: microbe, parasite or virus in culture; assay type: cell-based, HIV-1
in vitro = conditions: human
[2] = system: lentiviral particles with wild-type HIV-1 reverse transcriptase (mCherry) in HEK293T-mCat1 cells; assay: microbe, parasite or virus in culture; assay type: cell-based
HEK293T-mCat1 cells = conditions: 1 µM
[3] = system: luciferase lentiviral particles (wild-type RT) in HEK293T-mCat1 cells; assay: Luciferase-based screening using HEK293T-mCat1 cells; conditions: for Identified as active in the luciferase assay / Relative inhibition [%] of luciferase (wild-type RT): 1 µM; for Identified as active in the luciferase assay: second LOPAC screen; for Relative inhibition [%] of luciferase (wild-type RT): normalized to 1 µM AZT = 100% and DMSO = 0%, HEK293T-mCat1, 3 days
[4] = biological target: mCherry-encoding lentiviral vectors (wild-type reverse transcriptase); assay: Flow-cytometry based inhibitor analysis, mCherry vector; assay type: cell-based, HIV-1; conditions: Figure S2, read-out: IC50 of the wild-type virus, FC-based analysis
[5] = system: HIV-1-derived lentiviral particles (wild-type RT and AZT-resistant RT mutant) in HEK293T-mCat1 cells; assay type: cell-based; conditions: 1 µM
HIV = system: HIV; set-up: method as in earlier work; conditions: read-out: reported IC50; cited from earlier work
[6] = biological target: eGFP-encoding lentiviral vectors (mutant reverse transcriptase); assay: Flow-cytometry based inhibitor analysis, eGFP vector; assay type: cell-based, HIV-1; conditions: Figure S2, read-out: IC50 of the AZT-resistant mutant, FC-based analysis
[7] = system: ecotropic pseudo-typed lentiviral particles (luciferase) in PM1-mCat1 cells; assay: Luciferase-based viral integration assay using PM1-mCat1 cells; conditions: Human immunodeficiency virus 1, read-out: IC50 (in µM), viral integration assay
PM1-mCat1 cells = assay: Cytotoxicity determination (CellTiter-Glo) in PM1-mCat1 cell line; assay type: cell-based, human; conditions: PM1-mCat1 viability relative to DMSO
[8] = Human immunodeficiency virus 1, 48 h; read-out: Relative inhibition [%] of eGFP (mutant RT)
[9] = Human immunodeficiency virus 1, 48 h; read-out: Relative inhibition [%] of mCherry (wild-type RT)

With Nc1ccn([C@H]2CC[C@@H](CO)O2)c(=O)n1 [2',3'-Dideoxycytidine] the inhibition at 1 µM [1, 8] was 99%, the viability at 1 µM (in vitro) was 7% and the inhibition at 1 µM [2, 9] was 100%.
With Nc1nccc2c1ncn2[C@@H]1O[C@H](CO)[C@@H](O)[C@H]1O [3-Deazaadenosine] the “Relative inhibition [%] of eGFP (mutant RT)” value ([1]; 1 µM) was -34%, the “Relative inhibition [%] of mCherry (wild-type RT)” value (“Relative inhibition [%] of mCherry” below) ([2]; 1 µM) was -25% and the “Viability [%]” value (HEK293T-mCat1 cells) was 85%.
For Cc1cn([C@H]2C[C@H](N=[N+]=[N-])[C@@H](CO)O2)c(=O)[nH]c1=O [3‘-Azido-3‘-deoxythymidine], the “Relative inhibition [%] of eGFP (mutant RT)” value ([1]; 1 µM) was 38%, the “Identified as active in the luciferase assay” value (“Identified as active” below) [3] was “again identified” and the “Relative inhibition [%] of luciferase (wild-type RT)” value [3] was 85%. For the same molecule, the “Reduction of the luciferase signal” value ([3]; AZT control at 1 µM, HEK293T-mCat1) was 50%, the “Relative inhibition [%] of mCherry” value ([2]; 1 µM) was 73% and the “Viability [%]” value (HEK293T-mCat1 cells) was 89%.
Molecule Nc1nc2c(ncn2COCCO)c(=O)[nH]1 [Acyclovir] has an inhibition at 1 µM [1, 8] of -33%, a viability at 1 µM (in vitro) of 88% and an inhibition at 1 µM [2, 9] of 41%.
With NC12CC3CC(CC(C3)C1)C2 [Amantadine hydrochloride] the inhibition at 1 µM [1, 8] was -29%, the viability at 1 µM (in vitro) was 67% and the inhibition at 1 µM [2, 9] was 6%.
For Cl.Nc1ccn([C@@H]2O[C@H](CO)[C@@H](O)[C@@H]2O)c(=O)n1 [Cytosine-1-beta-D-arabino-furanoside hydrochloride], the “Relative inhibition [%] of eGFP (mutant RT)” value ([1]; 1 µM) was 95%, the “Identified as active” value [3] was “again identified” and the “Relative inhibition [%] of luciferase (wild-type RT)” value [3] was 211%. The “Relative inhibition [%] of mCherry” value ([2]; 1 µM) was 98% and the “Viability [%]” value (HEK293T-mCat1 cells) was 38%.
In the case of CC(=O)OCC(CCn1cnc2cnc(N)nc21)COC(C)=O [Famciclovir], the inhibition at 1 µM [1, 8] is reported as 100%, the viability at 1 µM (in vitro) is reported as 7% and the inhibition at 1 µM [2, 9] is reported as 100%.
Molecule Oc1ccc(C2CNCCc3c2cc(O)c(O)c3Cl)cc1 (stereo not shown) [Fenoldopam bromide] has an inhibition at 1 µM ([1]; Human immunodeficiency virus 1, 48 h, read-out: Relative inhibition [%] of eGFP (mutant RT)) of 65%, a viability at 1 µM (in vitro) of 73% and an inhibition at 1 µM ([3]; Human immunodeficiency virus 1, 72 h, read-out: Relative inhibition [%] of luciferase (wild-type RT)) of -40%. It also gave an inhibition at 1 µM ([2]; Human immunodeficiency virus 1, 48 h, read-out: Relative inhibition [%] of mCherry (wild-type RT)) of 61%.
In the case of Cc1c(O)cccc1C(=O)N[C@@H](CSc1ccccc1)[C@H](O)CN1C[C@H]2CCCC[C@H]2C[C@H]1C(=O)NC(C)(C)C [Nelfinavir mesylate hydrate], the inhibition at 1 µM [1, 8] is reported as 49%, the viability at 1 µM (in vitro) is reported as 26% and the inhibition at 1 µM [2, 9] is reported as 90%.
In the case of Nc1nc2c(ncn2CCOCP(=O)(O)O)c(=O)[nH]1 [PMEG hydrate], the “Residual transduction rate, eGFP encoding lentiviral particles, microscopy” value [1] is reported as 5%, the “Relative inhibition [%] of eGFP (mutant RT)” value ([1]; 1 µM) is reported as 70% and the IC50 [4] is reported as 560 nM. The “Identified as active” value [3] was “again identified”, the “Relative inhibition [%] of luciferase (wild-type RT)” value [3] was 156% and the “residual activity in the high-content screening” value [5] was 5%. The “Residual transduction rate, mCherry encoding lentiviral particles, microscopy” value [2] was 30%, the “Relative inhibition [%] of mCherry” value ([2]; 1 µM) was 94% and the IC50 (HIV) was 200 nM. For the same molecule, the “Viability [%]” value (HEK293T-mCat1 cells) was 54% and the IC50 [6] was 1200 nM.
Molecule NC(=O)c1ncn([C@@H]2O[C@H](CO)[C@@H](O)[C@H]2O)n1 [Ribavirin] has an inhibition at 1 µM [1, 8] of -73%, a viability at 1 µM (in vitro) of 81% and an inhibition at 1 µM [2, 9] of -21%.
With O=C(Nc1ccccc1N1CCCCC1)c1cc(S(=O)(=O)N2CCOCC2)ccc1Cl [T6098586, ClC1=C(C=C(C=C1)S(=O)(=O)N1CCOCC1)C(=O)NC1=C(C=CC=C1)N1CCCCC1] the IC50 [7] was 1.78 µM and the “Concentration beyond which the compound is toxic (viability drops below 80%)” value (PM1-mCat1 cells) was over 2000 nM.
In the case of COc1ccc(NS(=O)(=O)c2cccc(C(=O)NCC(c3ccc(OC)cc3)N3CCCCC3)c2)cc1 (stereo not shown) [T6213020, COC1=CC=C(NS(=O)(=O)C2=CC(=CC=C2)C(=O)NCC(N2CCCCC2)C2=CC=C(OC)C=C2)C=C1], the IC50 [7] is reported as 2.79 µM.
With CN(C1CCCCCC1)S(=O)(=O)c1cccc(C#N)c1 [T6302141, CN(C1CCCCCC1)S(=O)(=O)C1=CC(=CC=C1)C#N] the IC50 [7] was 2.24 µM.
Molecule Cc1cc(Cl)c(C)c(S(=O)(=O)NCCCN2CCCC2=O)c1Cl [T6312190, CC1=C(Cl)C(=C(C)C(Cl)=C1)S(=O)(=O)NCCCN1CCCC1=O] has an IC50 [7] of 2.02 µM.
In the case of c1ccc(CCNc2nc(CN3CCOCC3)nc3scc(-c4cccs4)c23)nc1 [T6312425, C(CC1=NC=CC=C1)NC1=C2C(SC=C2C2=CC=CS2)=NC(CN2CCOCC2)=N1], the IC50 [7] is reported as over 10 µM.
COc1ccccc1N1CCN(C(=O)c2cc(Cl)ccc2O)CC1 [T6328287, COC1=C(C=CC=C1)N1CCN(CC1)C(=O)C1=C(O)C=CC(Cl)=C1] showed an IC50 [7] of 3.89 µM.
With Cc1oc(-c2ccccc2)nc1CN1CC(C(=O)N2CCCCC2)Oc2ccccc21 (stereo not shown) [T6329376, CC1=C(CN2CC(OC3=C2C=CC=C3)C(=O)N2CCCCC2)N=C(O1)C1=CC=CC=C1] the IC50 [7] was 4.83 µM.
Work on Cc1cnc2c(S(=O)(=O)N3CCN(Cc4ccc5c(c4)OCCO5)CC3)cccc2c1 [T6332191, CC1=CC2=C(N=C1)C(=CC=C2)S(=O)(=O)N1CCN(CC2=CC3=C(OCCO3)C=C2)CC1] yielded an IC50 [7] of 1.42 µM.
Molecule O=C(Cc1csc(-c2ccccn2)n1)N=c1sccn1Cc1ccccc1 [T6357587, O=C(CC1=CSC(=N1)C1=NC=CC=C1)N=C1SC=CN1CC1=CC=CC=C1] has an IC50 [7] of 8.3 µM.
In the case of O=S(=O)(c1ccc(CSc2ncnc3scc(-c4ccc(F)cc4)c23)o1)N1CCCC1 [T6366633, FC1=CC=C(C=C1)C1=CSC2=C1C(SCC1=CC=C(O1)S(=O)(=O)N1CCCC1)=NC=N2], the IC50 [7] is reported as 1.67 µM.
In the case of O=C(Nc1ccccc1N1CCCC1)c1cc(S(=O)(=O)N2CCOCC2)ccc1F [T6382120, FC1=C(C=C(C=C1)S(=O)(=O)N1CCOCC1)C(=O)NC1=C(C=CC=C1)N1CCCC1], the IC50 [7] is reported as 2.86 µM.
Molecule O=C(Nc1ccccc1-n1cccn1)c1ccccc1Br [T6468172, BrC1=C(C=CC=C1)C(=O)NC1=C(C=CC=C1)N1C=CC=N1] has an IC50 [7] of 1.04 µM.
For C=CCNC(=O)CN1CCN(c2nc3ccccc3s2)CC1 [T6471356, C=CCNC(=O)CN1CCN(CC1)C1=NC2=C(S1)C=CC=C2], the IC50 [7] was 2.37 µM.
With COc1ccc(C2CCCN2C(=O)C2CC(=O)N(c3ccccc3F)C2)c(OC)c1 (stereo not shown) [T6496714, COC1=CC(OC)=C(C=C1)C1CCCN1C(=O)C1CN(C(=O)C1)C1=C(F)C=CC=C1] the IC50 [7] was 2.44 µM.
In the case of COc1ccc(OC)c(C2CCCN2C(=O)C2CC(=O)N(c3ccccc3)C2)c1 (stereo not shown) [T6517641, COC1=CC(C2CCCN2C(=O)C2CN(C(=O)C2)C2=CC=CC=C2)=C(OC)C=C1], the IC50 [7] is reported as 6.83 µM.
c1coc(-c2noc(CNc3ccccc3-n3cccn3)n2)c1 [T6671011, C(NC1=C(C=CC=C1)N1C=CC=N1)C1=NC(=NO1)C1=CC=CO1] gave an IC50 [7] of 4 µM.
